In ChEMBL document CHEMBL1255476, “Telbivudine exhibits no inhibitory activity against HIV-1 clinical isolates in vitro” (Antimicrob Agents Chemother, 2010):

Assays:
[1] = tested on: Human immunodeficiency virus 1; test: Antiviral activity against HIV1 subtype A isolate 2 infected in HEK293 cells assessed as inhibition of virus replication after 72 hrs; type: functional, organism-based; settings: Human immunodeficiency virus 1, subtype A isolate 2, HEK293, 72 h
[2] = tested on: Human immunodeficiency virus 1; test: Antiviral activity against HIV1 subtype A isolate 1 infected in HEK293 cells assessed as inhibition of virus replication after 72 hrs; type: functional, organism-based; settings: Human immunodeficiency virus 1, HEK293, 72 h
[3] = tested on: Human immunodeficiency virus 1; test: Antiviral activity against HIV1 subtype D isolate 8 infected in HEK293 cells assessed as inhibition of virus replication after 72 hrs; type: functional, organism-based; settings: Human immunodeficiency virus 1, subtype D isolate 8, HEK293, 72 h
[4] = tested on: Human immunodeficiency virus 1; test: Antiviral activity against HIV1 expressing reverse transcriptase D67N/K70R/T215F/K219E/M184V mutant infected in HEK293 cells assessed as inhibition of virus replication after 72 hrs; type: functional, organism-based; settings: Human immunodeficiency virus 1, HEK293, 72 h
[5] = tested on: Human immunodeficiency virus 1; test: Antiviral activity against HIV1 subtype C isolate 7 infected in HEK293 cells assessed as inhibition of virus replication after 72 hrs; type: functional, organism-based; settings: Human immunodeficiency virus 1, subtype C isolate 7, HEK293, 72 h
[6] = tested on: Human immunodeficiency virus 1; test: Antiviral activity against HIV1 subtype B isolate 3 infected in HEK293 cells assessed as inhibition of virus replication after 72 hrs; type: functional, organism-based; settings: Human immunodeficiency virus 1, subtype B isolate 3, HEK293, 72 h
[7] = tested on: Human immunodeficiency virus 1; test: Antiviral activity against HIV1 subtype BF isolate 5 infected in HEK293 cells assessed as inhibition of virus replication after 72 hrs; type: functional, organism-based; settings: Human immunodeficiency virus 1, subtype BF isolate 5, HEK293, 72 h
[8] = tested on: Human immunodeficiency virus 1; test: Antiviral activity against HIV1 subtype B isolate 4 infected in HEK293 cells assessed as inhibition of virus replication after 72 hrs; type: functional, organism-based; settings: Human immunodeficiency virus 1, HEK293, 72 h
HEK293 [9] = test: Cytotoxicity against human HEK293 cells at 100 uM; type: cell-based; settings: hek293, 100 µM
[10] = tested on: Human immunodeficiency virus 1; test: Antiviral activity against HIV1 subtype C isolate 6 infected in HEK293 cells assessed as inhibition of virus replication after 72 hrs; type: functional, organism-based; settings: Human immunodeficiency virus 1, HEK293, 72 h
[11] = tested on: Human immunodeficiency virus 1; test: Antiviral activity against HIV1 expressing reverse transcriptase K103N/Y181C/G190A mutant infected in HEK293 cells assessed as inhibition of virus replication after 72 hrs; type: functional, organism-based; settings: Human immunodeficiency virus 1, HEK293, 72 h
[12] = tested on: Human immunodeficiency virus 1; test: Antiviral activity against HIV1 NL4-3 infected in HEK293 cells assessed as inhibition of virus replication after 72 hrs; type: functional, organism-based; settings: Human immunodeficiency virus 1, NL4-3, HEK293, 72 h
[13] = Cmax in human at 600 mg; type: ADME, organism-based; parameters: dose 600 mg; settings: in vivo
HEK293 [14] = test: Cytotoxicity against human HEK293 cells at 2000 uM; type: cell-based; settings: hek293, 2000 µM
HEK293 [15] = test: Cytotoxicity against human HEK293 cells at 600 uM; type: cell-based; settings: hek293, 600 µM

C=C1[C@H](CO)[C@@H](O)C[C@@H]1n1cnc2c(=O)[nH]c(N)nc21.O [ENTECAVIR]
EC50 [1]: 13.2 µM | EC50 [2]: 12.5 µM | EC50 [3]: 7.62 µM | EC50 [4]: > 100 µM | EC50 [5]: 9.95 µM | EC50 [6]: 15.1 µM | EC50 [7]: 13.6 µM | EC50 [8]: 13.5 µM | Activity (HEK293 [9]): Non-toxic | EC50 [10]: 9.51 µM | EC50 [11]: 11.7 µM | EC50 [12]: 12.6 µM

Nc1ccn([C@@H]2CS[C@H](CO)O2)c(=O)n1 [LAMIVUDINE]
EC50 [1]: 4.48 µM | EC50 [2]: 3.54 µM | EC50 [3]: 3.25 µM | EC50 [4]: > 300 µM | EC50 [5]: 4.06 µM | EC50 [6]: 4.78 µM | EC50 [7]: 4.24 µM | EC50 [8]: 5.43 µM | EC50 [10]: 3.9 µM | EC50 [11]: 7.16 µM | EC50 [12]: 4.68 µM

Cc1cn([C@@H]2C[C@@H](O)[C@H](CO)O2)c(=O)[nH]c1=O [TELBIVUDINE]
EC50 [1]: > 600 µM | EC50 [2]: > 600 µM | Cmax [13]: 13.2 µM | EC50 [3]: > 600 µM | EC50 [4]: > 600 µM | EC50 [5]: > 600 µM | EC50 [6]: > 600 µM | EC50 [7]: > 600 µM | EC50 [8]: > 600 µM | EC50 [10]: > 600 µM | EC50 [11]: > 600 µM | EC50 [12]: > 600 µM | Activity (HEK293 [14]): Non-toxic | Activity (HEK293 [15]): Non-toxic
